The structures appear in SMILES notation.

For assay [1], the target named is Fibroblast growth factor 1 (Homo sapiens, UniProt P05230). Kind of assay: Binding Assay. Conditions: pH 7.4. Here is the method: (§1) Human FGF-1 and FGF-2 were purchased from R&D Systems, Inc. and supplied as protein (ug) dissolved in bovine serum albumin (BSA, 50ug). Surface plasmon resonance (SPR) measurements were performed on a BIA-core 3000 from BIAcore, Uppsala, Sweden and operated by the BIAcore control software.
Sequence of Fibroblast growth factor 1 (P05230 whole entry): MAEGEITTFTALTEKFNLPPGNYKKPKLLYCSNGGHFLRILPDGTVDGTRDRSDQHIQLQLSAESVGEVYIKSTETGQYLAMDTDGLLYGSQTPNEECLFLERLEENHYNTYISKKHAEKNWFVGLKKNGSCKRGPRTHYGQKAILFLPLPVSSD

In assay [2] the target is Fibroblast growth factor 2 (Homo sapiens, UniProt P09038). As to the kind of experiment: Binding Assay. Conditions: pH 7.4. As to the method: as §1
Sequence of Fibroblast growth factor 2 (P09038 143-288 limits assumed): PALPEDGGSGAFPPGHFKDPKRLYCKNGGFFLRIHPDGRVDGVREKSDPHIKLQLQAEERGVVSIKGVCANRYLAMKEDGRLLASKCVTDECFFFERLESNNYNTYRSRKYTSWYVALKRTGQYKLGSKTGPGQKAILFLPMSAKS

In the case of `O=S(=O)(O)O[C@H]1[C@H](OS(=O)(=O)O)[C@@H](N(CCN([C@H]2C=C[C@@H](OS(=O)(=O)O)[C@@H](OS(=O)(=O)O)[C@@H]2OS(=O)(=O)O)[C@H]2C=C[C@@H](OS(=O)(=O)O)[C@@H](OS(=O)(=O)O)[C@@H]2OS(=O)(=O)O)[C@H]2C=C[C@@H](OS(=O)(=O)O)[C@@H](OS(=O)(=O)O)[C@@H]2OS(=O)(=O)O)C=C[C@H]1OS(=O)(=O)O` [Linked sulfated tetracyclitol, 2], the Kd is 20.7 nM in assay [1] and 1100 nM in assay [2].

As for `O=S(=O)(O)O[C@H]1[C@H](OS(=O)(=O)O)[C@@H](N(CCCN([C@H]2C=C[C@@H](OS(=O)(=O)O)[C@@H](OS(=O)(=O)O)[C@@H]2OS(=O)(=O)O)[C@H]2C=C[C@@H](OS(=O)(=O)O)[C@@H](OS(=O)(=O)O)[C@@H]2OS(=O)(=O)O)[C@H]2C=C[C@@H](OS(=O)(=O)O)[C@@H](OS(=O)(=O)O)[C@@H]2OS(=O)(=O)O)C=C[C@H]1OS(=O)(=O)O` [Linked sulfated tetracyclitol, 3], the Kd in assay [1] was 7.2 nM; in assay [2], 248 nM.

For the compound `O=S(=O)(O)O[C@H]1[C@H](OS(=O)(=O)O)[C@@H](N(CCCCN([C@H]2C=C[C@@H](OS(=O)(=O)O)[C@@H](OS(=O)(=O)O)[C@@H]2OS(=O)(=O)O)[C@H]2C=C[C@@H](OS(=O)(=O)O)[C@@H](OS(=O)(=O)O)[C@@H]2OS(=O)(=O)O)[C@H]2C=C[C@@H](OS(=O)(=O)O)[C@@H](OS(=O)(=O)O)[C@@H]2OS(=O)(=O)O)C=C[C@H]1OS(=O)(=O)O` [Linked sulfated tetracyclitol, 4], the values for the Kd in assay [1] and in assay [2] were 25.4 nM and 161 nM, respectively.

With `O=S(=O)(O)O[C@H]1[C@H](OS(=O)(=O)O)[C@@H](N(CCCCCN([C@H]2C=C[C@@H](OS(=O)(=O)O)[C@@H](OS(=O)(=O)O)[C@@H]2OS(=O)(=O)O)[C@H]2C=C[C@@H](OS(=O)(=O)O)[C@@H](OS(=O)(=O)O)[C@@H]2OS(=O)(=O)O)[C@H]2C=C[C@@H](OS(=O)(=O)O)[C@@H](OS(=O)(=O)O)[C@@H]2OS(=O)(=O)O)C=C[C@H]1OS(=O)(=O)O` [Linked sulfated tetracyclitol, 5], the Kd in assay [1] turned out to be 29.8 nM; in assay [2] it was 148 nM.

For the compound `O=S(=O)(O)O[C@H]1[C@H](OS(=O)(=O)O)[C@@H](N(CCCCCCN([C@H]2C=C[C@@H](OS(=O)(=O)O)[C@@H](OS(=O)(=O)O)[C@@H]2OS(=O)(=O)O)[C@H]2C=C[C@@H](OS(=O)(=O)O)[C@@H](OS(=O)(=O)O)[C@@H]2OS(=O)(=O)O)[C@H]2C=C[C@@H](OS(=O)(=O)O)[C@@H](OS(=O)(=O)O)[C@@H]2OS(=O)(=O)O)C=C[C@H]1OS(=O)(=O)O` [Linked sulfated tetracyclitol, 6], the Kd came to 39 nM in assay [1] and 135 nM in assay [2].

On to `O=S(=O)(O)O[C@H]1[C@H](OS(=O)(=O)O)[C@@H](N(CCCCCCCN([C@H]2C=C[C@@H](OS(=O)(=O)O)[C@@H](OS(=O)(=O)O)[C@@H]2OS(=O)(=O)O)[C@H]2C=C[C@@H](OS(=O)(=O)O)[C@@H](OS(=O)(=O)O)[C@@H]2OS(=O)(=O)O)[C@H]2C=C[C@@H](OS(=O)(=O)O)[C@@H](OS(=O)(=O)O)[C@@H]2OS(=O)(=O)O)C=C[C@H]1OS(=O)(=O)O` [Linked sulfated tetracyclitol, 7], for which the figures for the Kd in assay [1] and in assay [2] were 8 nM and 90 nM, respectively.

Turning to `O=S(=O)(O)O[C@H]1[C@H](OS(=O)(=O)O)[C@@H](N(CCCCCCCCN([C@H]2C=C[C@@H](OS(=O)(=O)O)[C@@H](OS(=O)(=O)O)[C@@H]2OS(=O)(=O)O)[C@H]2C=C[C@@H](OS(=O)(=O)O)[C@@H](OS(=O)(=O)O)[C@@H]2OS(=O)(=O)O)[C@H]2C=C[C@@H](OS(=O)(=O)O)[C@@H](OS(=O)(=O)O)[C@@H]2OS(=O)(=O)O)C=C[C@H]1OS(=O)(=O)O` [Linked sulfated tetracyclitol, 8], the equilibrium dissociation constant (Kd) was found to be 40.4 nM in assay [1] and 108 nM in assay [2].

Take `O=S(=O)(O)O[C@H]1[C@H](OS(=O)(=O)O)[C@@H](N(CCCCCCCCCN([C@H]2C=C[C@@H](OS(=O)(=O)O)[C@@H](OS(=O)(=O)O)[C@@H]2OS(=O)(=O)O)[C@H]2C=C[C@@H](OS(=O)(=O)O)[C@@H](OS(=O)(=O)O)[C@@H]2OS(=O)(=O)O)[C@H]2C=C[C@@H](OS(=O)(=O)O)[C@@H](OS(=O)(=O)O)[C@@H]2OS(=O)(=O)O)C=C[C@H]1OS(=O)(=O)O` [Linked sulfated tetracyclitol, 9]: the values for the equilibrium dissociation constant (Kd) in assay [1] and in assay [2] were 119 nM and 194 nM, respectively.

Regarding `O=S(=O)(O)O[C@H]1[C@H](OS(=O)(=O)O)[C@@H](N(CCCCCCCCCCN([C@H]2C=C[C@@H](OS(=O)(=O)O)[C@@H](OS(=O)(=O)O)[C@@H]2OS(=O)(=O)O)[C@H]2C=C[C@@H](OS(=O)(=O)O)[C@@H](OS(=O)(=O)O)[C@@H]2OS(=O)(=O)O)[C@H]2C=C[C@@H](OS(=O)(=O)O)[C@@H](OS(=O)(=O)O)[C@@H]2OS(=O)(=O)O)C=C[C@H]1OS(=O)(=O)O` [Linked sulfated tetracyclitol, 10], the Kd in assay [1] turned out to be 115 nM; in assay [2], 448 nM.

Values taken from BindingDB's records for doi:10.1002/cbic.200500089 (Progen Industries, 2005).
